Usually IC50 stands for the concentration needed to halve the response being measured. Low readings indicate greater potency in that assay, high ones weaker potency in that assay.

The values that follow come from patent US20170233413A1, “SUBSTITUTED ANNULATED PYRIMIDINES AND USE THEREOF” (Bayer Pharma Aktiengesellschaft, priority 2014, published 2017).

The target in assay [1] is T1, recombinant guanylate cyclase reporter cell line (Rattus norvegicus, UniProt P19686+P20595).
T1 construct: expressed in transfected cells
T1 sequence (P19686 1-690): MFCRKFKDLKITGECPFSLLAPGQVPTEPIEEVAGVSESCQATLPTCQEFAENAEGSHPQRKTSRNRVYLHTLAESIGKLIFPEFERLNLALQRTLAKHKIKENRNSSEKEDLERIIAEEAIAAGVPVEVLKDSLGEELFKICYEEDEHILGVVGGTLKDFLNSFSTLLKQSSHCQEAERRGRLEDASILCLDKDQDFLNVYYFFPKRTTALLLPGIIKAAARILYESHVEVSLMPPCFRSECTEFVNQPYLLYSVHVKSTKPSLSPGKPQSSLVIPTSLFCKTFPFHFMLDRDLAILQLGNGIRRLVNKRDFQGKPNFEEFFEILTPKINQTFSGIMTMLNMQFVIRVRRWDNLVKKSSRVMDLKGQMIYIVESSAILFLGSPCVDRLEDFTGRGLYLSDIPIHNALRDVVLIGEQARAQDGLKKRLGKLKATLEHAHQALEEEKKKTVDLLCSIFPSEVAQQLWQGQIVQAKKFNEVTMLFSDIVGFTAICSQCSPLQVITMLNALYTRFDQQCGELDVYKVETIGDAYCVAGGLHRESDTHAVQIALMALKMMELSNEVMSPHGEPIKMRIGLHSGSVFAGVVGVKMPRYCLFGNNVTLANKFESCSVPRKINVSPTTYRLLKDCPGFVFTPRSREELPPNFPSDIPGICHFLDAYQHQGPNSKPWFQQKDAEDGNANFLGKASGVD
T1 sequence (P20595 1-619): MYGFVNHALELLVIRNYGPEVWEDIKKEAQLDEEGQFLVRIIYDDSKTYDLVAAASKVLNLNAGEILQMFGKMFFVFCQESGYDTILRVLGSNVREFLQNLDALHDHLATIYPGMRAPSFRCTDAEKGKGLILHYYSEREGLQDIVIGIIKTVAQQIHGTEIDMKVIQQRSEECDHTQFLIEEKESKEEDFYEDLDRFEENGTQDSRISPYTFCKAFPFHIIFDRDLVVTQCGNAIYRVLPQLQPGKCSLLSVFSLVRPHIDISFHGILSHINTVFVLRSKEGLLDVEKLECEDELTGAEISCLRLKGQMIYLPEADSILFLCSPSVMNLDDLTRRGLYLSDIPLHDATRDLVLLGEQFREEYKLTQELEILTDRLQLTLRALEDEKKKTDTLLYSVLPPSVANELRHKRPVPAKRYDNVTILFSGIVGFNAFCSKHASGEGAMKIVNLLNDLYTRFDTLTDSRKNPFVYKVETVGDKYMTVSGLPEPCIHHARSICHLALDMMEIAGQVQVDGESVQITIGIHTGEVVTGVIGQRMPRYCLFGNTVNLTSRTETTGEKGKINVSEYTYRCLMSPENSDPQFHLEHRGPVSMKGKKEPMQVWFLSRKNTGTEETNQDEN
Kind of assay: Effect on a recombinant guanylate cyclase reporter cell line. Type of assay: cell-based. The conditions noted are these: MEC = minimum effective concentration; in some cases means of individual determinations. The method in brief:
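Cellular activity measured in a recombinant rat soluble guanylate cyclase reporter cell line. Values are minimum effective concentration (MEC), some given as means of individual determinations.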

Assay [2] addresses T2, human phosphodiesterase 5 (PDE 5) (Homo sapiens, UniProt O76074).
T2 construct: PDE 5 preparations are obtained from human platelets by disruption; from tissue; host or cells: human platelets
Kind of assay: Inhibition of human phosphodiesterase 5 (PDE 5). Type of assay: biochemical. The conditions noted are these: PDE 5 preparation from human platelets; in some cases means of individual determinations. The method in brief: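 Enzyme partially purified from human platelets by Mono Q ion exchange, diluted so that under 70% of substrate converts. [8-3H]cGMP at 0.025 μCi per well in Tris pH 7.5 with MgCl2/EDTA, 60 min at room temperature, yttrium SPA bead read-out. Final compound concentrations 4–0.0018 μM; IC50 from concentration–inhibition plot.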

With `Cc1nc2c(cc1F)c(-c1nc3c(c(C(=O)NCC(C)(N)CC(F)F)n1)C(C)(C)C(=O)N3)nn2Cc1cccc(F)c1F` (single isomer, unassigned) [Example 57], the MEC in assay [1] worked out at 1 µM. In assay [2], this molecule returned an IC50 of 0.1 µM.
In the case of `CC1(C)C(=O)Nc2nc(-c3nn(Cc4ccccc4F)c4ncccc34)nc(C(=O)NCC3CCOC3)c21` (racemic) [Example 99, rac-2-[1-(2-fluorobenzyl)-1H-pyrazolo[3,4-b]pyridin-3-yl]-5,5-dimethyl-6-oxo-N-(tetrahydrofuran-3-ylmethyl)-6,7-dihydro-5H-pyrrolo[2,3-d]pyrimidine-4-carboxamide], the MEC in assay [1] was 0.3 µM. This molecule also registered an IC50 in assay [2] of 0.031 µM.
With `CN(C)CCNC(=O)c1nc(-c2nn(Cc3ccccc3F)c3ncccc23)nc2c1C(C)(C)C(=O)N2` [Example 128, N-[2-(dimethylamino)ethyl]-2-[1-(2-fluorobenzyl)-1H-pyrazolo[3,4-b]pyridin-3-yl]-5,5-dimethyl-6-oxo-6,7-dihydro-5H-pyrrolo[2,3-d]pyrimidine-4-carboxamide], in assay [1], the MEC was found to be 1 µM. In assay [2], the IC50 is 0.33 µM.
With `CC1(C)C(=O)Nc2nc(-c3nn(Cc4ccccc4F)c4ncc(F)cc34)nc(C(=O)NCCC(F)(F)F)c21` [Example 51], the MEC in assay [1] is 0.1 µM. Also, the IC50 in assay [2] is 0.087 µM.
On the same counts, the results for `CC(CNC(=O)c1nc(-c2nn(Cc3ccccc3F)c3ncccc23)nc2c1C(C)(C)C(=O)N2)N(C)C` (racemic) [Example 105, rac-N-[2-(dimethylamino)propyl]-2-[1-(2-fluorobenzyl)-1H-pyrazolo[3,4-b]pyridin-3-yl]-5,5-dimethyl-6-oxo-6,7-dihydro-5H-pyrrolo[2,3-d]pyrimidine-4-carboxamide] are 1 µM and 0.62 µM.
For `CC1(C)C(=O)Nc2nc(-c3nn(Cc4ccccc4F)c4ncccc34)nc(C(=O)NC3CCOC3)c21` (racemic) [Example 65, rac-2-[1-(2-fluorobenzyl)-1H-pyrazolo[3,4-b]pyridin-3-yl]-5,5-dimethyl-6-oxo-N-(tetrahydrofuran-3-yl)-6,7-dihydro-5H-pyrrolo[2,3-d]pyrimidine-4-carboxamide], in that order: 1 µM and 0.0068 µM.
With `CC1(C)C(=O)Nc2nc(-c3nn(Cc4ccccc4F)c4ncccc34)nc(C(=O)NCCSC(F)(F)F)c21` [Example 73, 2-[1-(2-fluorobenzyl)-1H-pyrazolo[3,4-b]pyridin-3-yl]-5,5-dimethyl-6-oxo-N-{2-[(trifluoromethyl)sulfanyl]ethyl}-6,7-dihydro-5H-pyrrolo[2,3-d]pyrimidine-4-carboxamide], the MEC in assay [1] was 0.3 µM. For the same molecule, in assay [2], 0.052 µM corresponded to half-maximal inhibition (IC50).
For `CC1(C)C(=O)Nc2nc(-c3nn(Cc4ccccc4F)c4ncccc34)nc(C(=O)NCCF)c21` [Example 83, 2-[1-(2-fluorobenzyl)-1H-pyrazolo[3,4-b]pyridin-3-yl]-N-(2-fluoroethyl)-5,5-dimethyl-6-oxo-6,7-dihydro-5H-pyrrolo[2,3-d]pyrimidine-4-carboxamide], in that order: 0.1 µM and 0.013 µM.
On the same counts, the results for `CSCCCNC(=O)c1nc(-c2nn(Cc3ccccc3F)c3ncccc23)nc2c1C(C)(C)C(=O)N2` [Example 61, 2-[1-(2-fluorobenzyl)-1H-pyrazolo[3,4-b]pyridin-3-yl]-5,5-dimethyl-N-[3-(methylsulfanyl)propyl]-6-oxo-6,7-dihydro-5H-pyrrolo[2,3-d]pyrimidine-4-carboxamide] are 0.1 µM and 0.016 µM.
As for `CC[C@H](C)NC(=O)c1nc(-c2nn(Cc3ccccc3F)c3ncccc23)nc2c1C(C)(C)C(=O)N2` [Example 134, N-[(2S)-butan-2-yl]-2-[1-(2-fluorobenzyl)-1H-pyrazolo[3,4-b]pyridin-3-yl]-5,5-dimethyl-6-oxo-6,7-dihydro-5H-pyrrolo[2,3-d]pyrimidine-4-carboxamide], the MEC in assay [1] is 0.3 µM. Besides, the midpoint of inhibition in assay [2], the IC50, lay at 0.013 µM.
With `CC1(C)C(=O)Nc2nc(-c3nn(Cc4ccccc4F)c4ncc(F)cc34)nc(C(=O)NC3(C#N)CC3)c21` [Example 31], the MEC in assay [1] turned out to be 0.1 µM. For the same molecule, in assay [2], the IC50 turned out to be 0.01 µM.
On the same counts, the results for `Cc1nc2c(cc1F)c(-c1nc3c(c(C(N)=O)n1)C(C)(C(F)(F)F)C(=O)N3)nn2Cc1cccc(F)c1F` (single isomer, unassigned; ent-2) [Example 11, ent-2-[1-(2,3-Difluorobenzyl)-5-fluoro-6-methyl-1H-pyrazolo[3,4-b]pyridin-3-yl]-5-methyl-6-oxo-5-(trifluoromethyl)-6,7-dihydro-5H-pyrrolo[2,3-d]pyrimidine-4-carboxamide (enantiomer B)] are 0.1 µM and 0.091 µM.
For `CC1(C)C(=O)Nc2nc(-c3nn(Cc4ccccc4F)c4ncccc34)nc(C(=O)Nc3cncc(F)c3)c21` [Example 107, 2-[1-(2-fluorobenzyl)-1H-pyrazolo[3,4-b]pyridin-3-yl]-N-(5-fluoropyridin-3-yl)-5,5-dimethyl-6-oxo-6,7-dihydro-5H-pyrrolo[2,3-d]pyrimidine-4-carboxamide], the MEC in assay [1] was determined as 0.3 µM. In assay [2], this molecule gave an IC50 of 0.073 µM.
On the same counts, the results for `Cc1nc2c(cc1F)c(-c1nc3c(c(C(N)=O)n1)C(C)(C)C(=O)N3)nn2Cc1cccc(F)c1F` [Example 4, 2-[1-(2,3-Difluorobenzyl)-5-fluoro-6-methyl-1H-pyrazolo[3,4-b]pyridin-3-yl]-5,5-dimethyl-6-oxo-6,7-dihydro-5H-pyrrolo[2,3-d]pyrimidine-4-carboxamide] are 0.2 µM and 0.11 µM.
Take `CCOCCCNC(=O)c1nc(-c2nn(Cc3ccccc3F)c3ncccc23)nc2c1C(C)(C)C(=O)N2` [Example 123, N-(3-ethoxypropyl)-2-[1-(2-fluorobenzyl)-1H-pyrazolo[3,4-b]pyridin-3-yl]-5,5-dimethyl-6-oxo-6,7-dihydro-5H-pyrrolo[2,3-d]pyrimidine-4-carboxamide]: the MEC in assay [1] is 0.1 µM. In assay [2], the IC50 was 0.026 µM.
On the same counts, the results for `CC1(C)C(=O)Nc2nc(-c3nn(Cc4ccccc4F)c4ncc(F)cc34)nc(C(N)=O)c21` [Example 2, 2-[5-Fluoro-1-(2-fluorobenzyl)-1H-pyrazolo[3,4-b]pyridin-3-yl]-5,5-dimethyl-6-oxo-6,7-dihydro-5H-pyrrolo[2,3-d]pyrimidine-4-carboxamide] are 0.03 µM and 0.013 µM.
Consider `CC1(NC(=O)c2nc(-c3nn(Cc4ccccc4F)c4ncccc34)nc3c2C(C)(C)C(=O)N3)CCC1` [Example 97, 2-[1-(2-fluorobenzyl)-1H-pyrazolo[3,4-b]pyridin-3-yl]-5,5-dimethyl-N-(1-methylcyclobutyl)-6-oxo-6,7-dihydro-5H-pyrrolo[2,3-d]pyrimidine-4-carboxamide], for which the MEC in assay [1] was 0.3 µM. In assay [2], this molecule had an IC50 of 0.0082 µM.
Turning to `CC1(C)C(=O)Nc2nc(-c3nn(Cc4ccccc4F)c4ncccc34)nc(C(=O)NC3CCOCC3)c21` [Example 98, 2-[1-(2-fluorobenzyl)-1H-pyrazolo[3,4-b]pyridin-3-yl]-5,5-dimethyl-6-oxo-N-(tetrahydro-2H-pyran-4-yl)-6,7-dihydro-5H-pyrrolo[2,3-d]pyrimidine-4-carboxamide], the MEC in assay [1] stood at 1 µM. This molecule came in with an IC50 in assay [2] of 0.033 µM.
On the same counts, the results for `CCC(C)CNC(=O)c1nc(-c2nn(Cc3ccccc3F)c3ncccc23)nc2c1C(C)(C)C(=O)N2` (racemic) [Example 125, rac-2-[1-(2-fluorobenzyl)-1H-pyrazolo[3,4-b]pyridin-3-yl]-5,5-dimethyl-N-(2-methylbutyl)-6-oxo-6,7-dihydro-5H-pyrrolo[2,3-d]pyrimidine-4-carboxamide] are 0.3 µM and 0.03 µM.
